Results published in ChEMBL document CHEMBL1143693, “Cancer chemopreventive effects of cycloartane-type and related triterpenoids in in vitro and in vivo models” (J Nat Prod, 2007).

Tested on: Human gammaherpesvirus 4
Experiment: Inhibition of TPA-induced Epstein-Barr virus early antigen activation assessed as EBV-EA induction in Raji cells at 32 nM after 48 hrs relative to TPA; values are per cent of control
Details: human gammaherpesvirus 4, Raji

Structure (SMILES)	level, % of control at 0.032 µM
CC(C)=CCC[C@@H](C)C1=CC[C@@]2(C)[C@@H]3CC[C@H]4C(C)(C)[C@@H](O)CC[C@@]45C[C@@]35CC[C@]12C [CIMICIFUGENOL]	26.8%
C=C(C)[C@H](O)CC[C@@H](C)[C@H]1CC[C@@]2(C)[C@@H]3CC[C@H]4C(C)(C)[C@@H](O)CC[C@@]45C[C@@]35CC[C@]12C	15%
C[C@@H]1[C@@H](O)CC[C@]23C[C@]24CC[C@]2(C)[C@@H]([C@H](C)CC[C@H](O)C(C)(C)O)CC[C@@]2(C)[C@@H]4CC[C@@H]13	17.1%
CC(C)CCC[C@@H](C)[C@H]1CC[C@@]2(C)[C@@H]3CC[C@H]4C(C)(C)[C@@H](O)CC[C@@]45C[C@@]35CC[C@]12C [CYCLOARTANOL]	30.2%
C=C(CC[C@@H](C)[C@H]1CC[C@@]2(C)[C@@H]3CC[C@H]4C(C)(C)[C@@H](OC(=O)/C=C/c5ccc(O)c(OC)c5)CC[C@@]45C[C@@]35CC[C@]12C)C(C)C	54.7%
C=C(C)[C@@H](C)CC[C@@H](C)[C@H]1CC[C@@]2(C)[C@@H]3CC[C@H]4[C@H](C)[C@H](O)CC[C@@]45C[C@@]35CC[C@]12C	29.3%

Tested on: Human gammaherpesvirus 4
Experiment: Inhibition of TPA-induced Epstein-Barr virus early antigen activation assessed as EBV-EA induction in Raji cells at 320 nM after 48 hrs relative to TPA; values are per cent of control
Details: human gammaherpesvirus 4, Raji

Structure (SMILES)	level, % of control at 0.32 µM
CC(C)=CCC[C@@H](C)C1=CC[C@@]2(C)[C@@H]3CC[C@H]4C(C)(C)[C@@H](O)CC[C@@]45C[C@@]35CC[C@]12C [CIMICIFUGENOL]	0%
C=C(C)[C@H](O)CC[C@@H](C)[C@H]1CC[C@@]2(C)[C@@H]3CC[C@H]4C(C)(C)[C@@H](O)CC[C@@]45C[C@@]35CC[C@]12C	0%
C[C@@H]1[C@@H](O)CC[C@]23C[C@]24CC[C@]2(C)[C@@H]([C@H](C)CC[C@H](O)C(C)(C)O)CC[C@@]2(C)[C@@H]4CC[C@@H]13	0%
CC(C)CCC[C@@H](C)[C@H]1CC[C@@]2(C)[C@@H]3CC[C@H]4C(C)(C)[C@@H](O)CC[C@@]45C[C@@]35CC[C@]12C [CYCLOARTANOL]	0%
C=C(CC[C@@H](C)[C@H]1CC[C@@]2(C)[C@@H]3CC[C@H]4C(C)(C)[C@@H](OC(=O)/C=C/c5ccc(O)c(OC)c5)CC[C@@]45C[C@@]35CC[C@]12C)C(C)C	17.6%
C=C(C)[C@@H](C)CC[C@@H](C)[C@H]1CC[C@@]2(C)[C@@H]3CC[C@H]4[C@H](C)[C@H](O)CC[C@@]45C[C@@]35CC[C@]12C	0%

Tested on: not listed separately
Experiment: Scavenging activity against NO generation in human Chang liver cells assessed as inhibition of NOR1-activation at 350 nM relative to NOR1
Assay type: functional
Details: not given

Structure (SMILES)	Activity
CC(C)=CCC[C@@H](C)C1=CC[C@@]2(C)[C@@H]3CC[C@H]4C(C)(C)[C@@H](O)CC[C@@]45C[C@@]35CC[C@]12C [CIMICIFUGENOL]	1.8
C=C(C)[C@H](O)CC[C@@H](C)[C@H]1CC[C@@]2(C)[C@@H]3CC[C@H]4C(C)(C)[C@@H](O)CC[C@@]45C[C@@]35CC[C@]12C	2
C[C@@H]1[C@@H](O)CC[C@]23C[C@]24CC[C@]2(C)[C@@H]([C@H](C)CC[C@H](O)C(C)(C)O)CC[C@@]2(C)[C@@H]4CC[C@@H]13	1.7
CC(C)CCC[C@@H](C)[C@H]1CC[C@@]2(C)[C@@H]3CC[C@H]4C(C)(C)[C@@H](O)CC[C@@]45C[C@@]35CC[C@]12C [CYCLOARTANOL]	1.8
C=C(CC[C@@H](C)[C@H]1CC[C@@]2(C)[C@@H]3CC[C@H]4C(C)(C)[C@@H](OC(=O)/C=C/c5ccc(O)c(OC)c5)CC[C@@]45C[C@@]35CC[C@]12C)C(C)C	1.8
C=C(C)[C@@H](C)CC[C@@H](C)[C@H]1CC[C@@]2(C)[C@@H]3CC[C@H]4[C@H](C)[C@H](O)CC[C@@]45C[C@@]35CC[C@]12C	1.8

Tested on: Human gammaherpesvirus 4
Experiment: Inhibition of TPA-induced Epstein-Barr virus early antigen activation assessed as EBV-EA induction in Raji cells at 0.32 nM after 48 hrs relative to TPA; values are per cent of control
Details: human gammaherpesvirus 4, Raji

Structure (SMILES)	level, % of control at 0.00032 µM
CC(C)=CCC[C@@H](C)C1=CC[C@@]2(C)[C@@H]3CC[C@H]4C(C)(C)[C@@H](O)CC[C@@]45C[C@@]35CC[C@]12C [CIMICIFUGENOL]	93.8%
C=C(C)[C@H](O)CC[C@@H](C)[C@H]1CC[C@@]2(C)[C@@H]3CC[C@H]4C(C)(C)[C@@H](O)CC[C@@]45C[C@@]35CC[C@]12C	84.4%
C[C@@H]1[C@@H](O)CC[C@]23C[C@]24CC[C@]2(C)[C@@H]([C@H](C)CC[C@H](O)C(C)(C)O)CC[C@@]2(C)[C@@H]4CC[C@@H]13	88.8%
CC(C)CCC[C@@H](C)[C@H]1CC[C@@]2(C)[C@@H]3CC[C@H]4C(C)(C)[C@@H](O)CC[C@@]45C[C@@]35CC[C@]12C [CYCLOARTANOL]	95%
C=C(CC[C@@H](C)[C@H]1CC[C@@]2(C)[C@@H]3CC[C@H]4C(C)(C)[C@@H](OC(=O)/C=C/c5ccc(O)c(OC)c5)CC[C@@]45C[C@@]35CC[C@]12C)C(C)C	100%
C=C(C)[C@@H](C)CC[C@@H](C)[C@H]1CC[C@@]2(C)[C@@H]3CC[C@H]4[C@H](C)[C@H](O)CC[C@@]45C[C@@]35CC[C@]12C	94.5%

Tested on: Raji
Experiment: Cell viability of Raji cells at 320 nM
Assay type: functional, Homo sapiens
Details: not given

Structure (SMILES)	Activity
CC(C)=CCC[C@@H](C)C1=CC[C@@]2(C)[C@@H]3CC[C@H]4C(C)(C)[C@@H](O)CC[C@@]45C[C@@]35CC[C@]12C [CIMICIFUGENOL]	70%
C=C(C)[C@H](O)CC[C@@H](C)[C@H]1CC[C@@]2(C)[C@@H]3CC[C@H]4C(C)(C)[C@@H](O)CC[C@@]45C[C@@]35CC[C@]12C	70%
C[C@@H]1[C@@H](O)CC[C@]23C[C@]24CC[C@]2(C)[C@@H]([C@H](C)CC[C@H](O)C(C)(C)O)CC[C@@]2(C)[C@@H]4CC[C@@H]13	70%
CC(C)CCC[C@@H](C)[C@H]1CC[C@@]2(C)[C@@H]3CC[C@H]4C(C)(C)[C@@H](O)CC[C@@]45C[C@@]35CC[C@]12C [CYCLOARTANOL]	70%
C=C(CC[C@@H](C)[C@H]1CC[C@@]2(C)[C@@H]3CC[C@H]4C(C)(C)[C@@H](OC(=O)/C=C/c5ccc(O)c(OC)c5)CC[C@@]45C[C@@]35CC[C@]12C)C(C)C	70%
C=C(C)[C@@H](C)CC[C@@H](C)[C@H]1CC[C@@]2(C)[C@@H]3CC[C@H]4[C@H](C)[C@H](O)CC[C@@]45C[C@@]35CC[C@]12C	70%

Tested on: Human gammaherpesvirus 4
Experiment: Inhibition of TPA-induced Epstein-Barr virus early antigen activation assessed as EBV-EA induction in Raji cells at 3.2 nM after 48 hrs relative to TPA; values are per cent of control
Details: human gammaherpesvirus 4, Raji

Structure (SMILES)	level, % of control at 0.0032 µM
CC(C)=CCC[C@@H](C)C1=CC[C@@]2(C)[C@@H]3CC[C@H]4C(C)(C)[C@@H](O)CC[C@@]45C[C@@]35CC[C@]12C [CIMICIFUGENOL]	72.6%
C=C(C)[C@H](O)CC[C@@H](C)[C@H]1CC[C@@]2(C)[C@@H]3CC[C@H]4C(C)(C)[C@@H](O)CC[C@@]45C[C@@]35CC[C@]12C	57.8%
C[C@@H]1[C@@H](O)CC[C@]23C[C@]24CC[C@]2(C)[C@@H]([C@H](C)CC[C@H](O)C(C)(C)O)CC[C@@]2(C)[C@@H]4CC[C@@H]13	61.3%
CC(C)CCC[C@@H](C)[C@H]1CC[C@@]2(C)[C@@H]3CC[C@H]4C(C)(C)[C@@H](O)CC[C@@]45C[C@@]35CC[C@]12C [CYCLOARTANOL]	70.2%
C=C(CC[C@@H](C)[C@H]1CC[C@@]2(C)[C@@H]3CC[C@H]4C(C)(C)[C@@H](OC(=O)/C=C/c5ccc(O)c(OC)c5)CC[C@@]45C[C@@]35CC[C@]12C)C(C)C	82%
C=C(C)[C@@H](C)CC[C@@H](C)[C@H]1CC[C@@]2(C)[C@@H]3CC[C@H]4[C@H](C)[C@H](O)CC[C@@]45C[C@@]35CC[C@]12C	71.5%

Tested on: Human gammaherpesvirus 4
Experiment: Inhibition of TPA-induced Epstein-Barr virus early antigen activation in Raji cells after 48 hrs
Assay type: functional, organism-based
Details: human gammaherpesvirus 4, Raji

Structure (SMILES)	IC50
CC(C)=CCC[C@@H](C)C1=CC[C@@]2(C)[C@@H]3CC[C@H]4C(C)(C)[C@@H](O)CC[C@@]45C[C@@]35CC[C@]12C [CIMICIFUGENOL]	9 nM
C=C(C)[C@H](O)CC[C@@H](C)[C@H]1CC[C@@]2(C)[C@@H]3CC[C@H]4C(C)(C)[C@@H](O)CC[C@@]45C[C@@]35CC[C@]12C	6.4 nM
C[C@@H]1[C@@H](O)CC[C@]23C[C@]24CC[C@]2(C)[C@@H]([C@H](C)CC[C@H](O)C(C)(C)O)CC[C@@]2(C)[C@@H]4CC[C@@H]13	6.7 nM
CC(C)CCC[C@@H](C)[C@H]1CC[C@@]2(C)[C@@H]3CC[C@H]4C(C)(C)[C@@H](O)CC[C@@]45C[C@@]35CC[C@]12C [CYCLOARTANOL]	9.4 nM
C=C(CC[C@@H](C)[C@H]1CC[C@@]2(C)[C@@H]3CC[C@H]4C(C)(C)[C@@H](OC(=O)/C=C/c5ccc(O)c(OC)c5)CC[C@@]45C[C@@]35CC[C@]12C)C(C)C	15.8 nM
C=C(C)[C@@H](C)CC[C@@H](C)[C@H]1CC[C@@]2(C)[C@@H]3CC[C@H]4[C@H](C)[C@H](O)CC[C@@]45C[C@@]35CC[C@]12C	9.3 nM
